Ten compounds from ChEMBL document CHEMBL1201862, “PubChem BioAssay data set” (2004) can be followed below.

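In this assay, cells in 96-well plates receive the compound at five concentrations for 48 hours. Endpoints are linearly interpolated between the surrounding concentrations. At the GI50, growth is halved.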 Active and inactive are the calls of the source. Cut-off read from the data, not from the text of the source: active = GI50 up to about 1.1 µM and inactive = higher.

Some test systems named below: COLO 205; DU-145; SK-MEL-2; NCI-H23; NCI-H522; SF-539; TK-10; UACC-62; SK-OV-3; HCC 2998; OVCAR-3; HCT-15; SF-268; RPMI-8226; HT-29; T47D; Malme-3M; HOP-92; SK-MEL-28; ACHN.
Assay in all cases: NCI tumour cell line growth inhibition, 48 h

Turning to `N=C(N)NCCNC(=N)N`, the GI50 with COLO 205, in the test on DU-145, with SK-MEL-2, with NCI-H23, with NCI-H522 and in the test with SF-539 was > 100 µM (inactive) in each case. Also, the GI50 in the test with TK-10 was > 100 µM (inactive); in the test on UACC-62, > 100 µM (inactive); in the test with SK-OV-3 it was > 100 µM (inactive); in the test on HCC 2998, > 100 µM (inactive); with OVCAR-3, > 100 µM (inactive); in the test with HCT-15, over 100 µM. Also, the GI50 with SF-268 was > 100 µM (inactive); in the test on RPMI-8226, > 100 µM (inactive); with HT-29, > 100 µM (inactive); in the test with T47D, 84.3 µM (inactive); in the test with Malme-3M, 37.5 µM (inactive); in the test on HOP-92 it was > 100 µM (inactive). In addition, the GI50 with SK-MEL-28 and in the test with ACHN was > 100 µM (inactive) in each case.

Turning to `CCOC(=O)n1c(=O)nc2c3c(ncn21)Oc1c(c(-c2ccccc2)nn1-c1ccccc1)C3c1ccc(Cl)cc1` (stereo not given), the GI50 was 1.32 µM (inactive) in the test on COLO 205; 1.71 µM (inactive) in the test on DU-145; 1.84 µM (inactive) in the test on SK-MEL-2; 1.69 µM (inactive) in the test with NCI-H23; 1.73 µM (inactive) in the test with NCI-H522; 1.56 µM (inactive) in the test on SF-539. Moreover, the GI50 in the test on TK-10 was 1.7 µM (inactive); in the test with UACC-62 it was 1.7 µM (inactive); in the test on SK-OV-3, 2.86 µM (inactive); with HCC 2998 it was 0.631 µM (active); with OVCAR-3, 1.48 µM (inactive); in the test with HCT-15, 1.18 µM. Besides, the GI50 is 1.58 µM (inactive) in the test on SF-268; 1.46 µM (inactive) in the test with RPMI-8226; 1.75 µM (inactive) in the test with HT-29; 1.77 µM (inactive) in the test with T47D; 1.84 µM (inactive) with Malme-3M; 1.36 µM (inactive) with HOP-92. The GI50 in the test with SK-MEL-28 is 1.79 µM (inactive); with ACHN, 1.71 µM (inactive).

For `C/C=C/[C@@H]1O[C@H](CC#C[Si](C)(C)C)[C@@]2(C=O)C(C)=CC[C@H](C(C)C)[C@@H]12`, the GI50 was 21.5 µM (inactive) in the test with COLO 205; 21.3 µM (inactive) in the test on DU-145; 16.5 µM (inactive) in the test on SK-MEL-2; 22.2 µM (inactive) in the test with NCI-H23; 2.09 µM (inactive) in the test with NCI-H522; 21.6 µM (inactive) in the test on SF-539. Moreover, the GI50 with TK-10 is 15 µM (inactive); with UACC-62, 15.8 µM (inactive); in the test on SK-OV-3, 80.4 µM (inactive); in the test with HCC 2998, 18.2 µM (inactive); in the test with OVCAR-3, 18.6 µM (inactive); in the test with HCT-15 it was 21.1 µM. For the same compound, the GI50 in the test with SF-268 was 23.8 µM (inactive); with RPMI-8226, 5.7 µM (inactive); with HT-29, 19.5 µM (inactive); in the test with T47D it was 30.8 µM (inactive); in the test with Malme-3M, 19 µM (inactive); with HOP-92, 17.4 µM (inactive). Moreover, the GI50 was 20.3 µM (inactive) in the test on SK-MEL-28 and 19.2 µM (inactive) in the test with ACHN.

For the compound `O=C1c2ccccc2NC(c2cc(Cl)cc(Cl)c2O)N1CCc1ccccn1` (stereo not given), the GI50 is > 100 µM (inactive) with COLO 205; 46.7 µM (inactive) with DU-145; > 100 µM (inactive) in the test with SK-MEL-2; > 100 µM (inactive) in the test on NCI-H23; 41.9 µM (inactive) in the test with NCI-H522; > 100 µM (inactive) with SF-539. In addition, the GI50 with TK-10 is > 100 µM (inactive); in the test with UACC-62, > 100 µM (inactive); in the test on SK-OV-3 it was > 100 µM (inactive); in the test with HCC 2998 it was 53.2 µM (inactive); in the test with OVCAR-3, > 100 µM (inactive); in the test with HCT-15, 86.3 µM. Further, the GI50 with SF-268 is > 100 µM (inactive); in the test on RPMI-8226, 34.8 µM (inactive); in the test on HT-29, 80.9 µM (inactive); in the test with T47D, 26.7 µM (inactive); with Malme-3M, 30.8 µM (inactive); in the test with HOP-92, 52.7 µM (inactive). Further, the GI50 in the test with SK-MEL-28 is > 100 µM (inactive); in the test with ACHN, 87.3 µM (inactive).

Turning to `CCN(CC)Cc1cc(/N=N\c2c(O)ccc3c(/N=N\c4ccc(O)c(CN(CC)CC)c4)c(O)ccc23)ccc1O`, the GI50 is 1.61 µM (inactive) with COLO 205; 2.65 µM (inactive) in the test on DU-145; 12.6 µM (inactive) in the test on SK-MEL-2; 3.56 µM (inactive) with NCI-H23; 2.31 µM (inactive) in the test on NCI-H522; 2.73 µM (inactive) in the test on SF-539. Also, the GI50 in the test on TK-10 is 6.89 µM (inactive); with UACC-62, 4.41 µM (inactive); in the test on SK-OV-3, 2.77 µM (inactive); in the test on HCC 2998, 1.71 µM (inactive); with OVCAR-3, 3.73 µM (inactive); in the test with HCT-15, 1.68 µM. In addition, the GI50 in the test on SF-268 was 4.56 µM (inactive); with RPMI-8226, 1.68 µM (inactive); with HT-29, 2.57 µM (inactive); with T47D, 10.3 µM (inactive); in the test with Malme-3M it was 4.5 µM (inactive); in the test on HOP-92 it was 4.58 µM (inactive). In addition, the values for the GI50 in the test on SK-MEL-28 and in the test on ACHN were 5.96 µM (inactive) and 2.49 µM (inactive), respectively.

With `NC1=C(Cl)C(=O)c2c(O)ccc(O)c2C1=O`, the GI50 in the test with COLO 205 was 1.69 µM (inactive); with DU-145, 2.2 µM (inactive); in the test on SK-MEL-2 it was 4.72 µM (inactive); in the test with NCI-H23 it was 2.05 µM (inactive); in the test with NCI-H522, 14.6 µM (inactive); with SF-539, 2.84 µM (inactive). For the same compound, the GI50 in the test with TK-10 was 15.2 µM (inactive); with UACC-62 it was 1.59 µM (inactive); with SK-OV-3, 20.9 µM (inactive); in the test on HCC 2998 it was 2.84 µM (inactive); in the test on OVCAR-3, 2.22 µM (inactive); in the test with HCT-15, 3.37 µM. For the same compound, the GI50 in the test with SF-268 is 3.83 µM (inactive); in the test with RPMI-8226, 4.75 µM (inactive); with HT-29, 2.54 µM (inactive); in the test on T47D, 7.24 µM (inactive); with Malme-3M, 0.279 µM (active); with HOP-92, 12.1 µM (inactive). For the same compound, the results for the GI50 in the test on SK-MEL-28 and in the test on ACHN were 2.39 µM (inactive) and 4.88 µM (inactive), respectively.

For `O=C(CSc1nc2ccccc2c(=O)n1-c1ccccc1)N/N=C1\C(=O)Nc2ccc(Br)cc21`, the GI50 is 3.74 µM (inactive) with COLO 205; 2.13 µM (inactive) with DU-145; 9.53 µM (inactive) in the test on SK-MEL-2; 3.42 µM (inactive) in the test with NCI-H23; 3.4 µM (inactive) in the test with NCI-H522; 2.1 µM (inactive) in the test on SF-539. Further, the GI50 in the test on TK-10 is 2.39 µM (inactive); in the test on UACC-62, 4.44 µM (inactive); in the test on SK-OV-3, 3.41 µM (inactive); in the test with HCC 2998 it was 8.17 µM (inactive); in the test on OVCAR-3, 3.1 µM (inactive); with HCT-15, 4.39 µM. The GI50 with SF-268 is 5.48 µM (inactive); in the test on RPMI-8226, 2.72 µM (inactive); with HT-29, 1.69 µM (inactive); in the test on T47D, 4.92 µM (inactive); with Malme-3M, 2.26 µM (inactive); with HOP-92, 2.7 µM (inactive). Also, the GI50 in the test on SK-MEL-28 was 3.35 µM (inactive); with ACHN, 4.57 µM (inactive).

For `COc1cc(C2S/C(=C/c3ccccc3)C(=O)N2c2cc(Cl)c(Cl)cc2Cl)cc(OC)c1OC` (stereo not given), the GI50 is 53.6 µM (inactive) in the test with COLO 205; 30.2 µM (inactive) in the test with DU-145; 41.3 µM (inactive) with SK-MEL-2; 43.2 µM (inactive) in the test with NCI-H23; 16.9 µM (inactive) in the test on NCI-H522; 25.6 µM (inactive) in the test with SF-539. The GI50 is > 69.3 µM (inactive) in the test on TK-10; 27.5 µM (inactive) in the test with UACC-62; > 70.5 µM (inactive) in the test with SK-OV-3; 39.1 µM (inactive) in the test on HCC 2998; 24.2 µM (inactive) in the test with OVCAR-3; 28.7 µM with HCT-15. Also, the GI50 in the test with SF-268 is 29.6 µM (inactive); with RPMI-8226 it was 24.6 µM (inactive); in the test on HT-29 it was 46.2 µM (inactive); in the test with T47D, > 50.8 µM (inactive); in the test on Malme-3M it was 26.2 µM (inactive); in the test on HOP-92, 13.7 µM (inactive). Moreover, the GI50 in the test on SK-MEL-28 is > 64 µM (inactive); in the test with ACHN, 35.6 µM (inactive).

Take `Cc1ccc(NC(=O)c2cccc(OP(=O)(O)Nc3ccc(C)cc3)c2)cc1`: the GI50 was > 100 µM (inactive) in the test on COLO 205; > 100 µM (inactive) in the test with DU-145; > 100 µM (inactive) in the test on SK-MEL-2; > 100 µM (inactive) in the test with NCI-H23; 18.7 µM (inactive) in the test on NCI-H522; > 100 µM (inactive) in the test on SF-539. Moreover, the GI50 with TK-10 is > 100 µM (inactive); with UACC-62, > 100 µM (inactive); in the test on SK-OV-3, > 100 µM (inactive); with HCC 2998, > 100 µM (inactive); with OVCAR-3, > 100 µM (inactive); in the test with HCT-15, over 100 µM. In addition, the GI50 with SF-268 is > 100 µM (inactive); in the test with RPMI-8226 it was > 100 µM (inactive); with HT-29, > 100 µM (inactive); with T47D, 79.3 µM (inactive); in the test on Malme-3M, > 100 µM (inactive); in the test with HOP-92, 37.2 µM (inactive). Besides, the GI50 in the test with SK-MEL-28 was > 100 µM (inactive); in the test with ACHN, 57.4 µM (inactive).

`CCN(CC)CCCNc1ccc2nc(C)n3c4ccc(O)cc4c(=O)c1c23`: the GI50 in the test with COLO 205 is 5.18 µM (inactive); in the test with DU-145, 5.46 µM (inactive); in the test on SK-MEL-2 it was 6.35 µM (inactive); in the test on NCI-H23 it was 1.34 µM (inactive); in the test on NCI-H522, 0.485 µM (active); in the test on SF-539, 9.38 µM (inactive). The GI50 in the test on TK-10 was 7.16 µM (inactive); in the test on UACC-62, 10 µM (inactive); with SK-OV-3, 6.64 µM (inactive); in the test on HCC 2998, 7.43 µM (inactive); in the test on OVCAR-3 it was 8.09 µM (inactive); with HCT-15, 3.62 µM. Further, the GI50 in the test on SF-268 is 1.96 µM (inactive); in the test on RPMI-8226, 1.9 µM (inactive); with HT-29 it was 1.17 µM (inactive); in the test with T47D it was 15.4 µM (inactive); in the test with Malme-3M it was 10.7 µM (inactive); in the test on HOP-92, 2.89 µM (inactive). In addition, the GI50 was 12.7 µM (inactive) in the test on SK-MEL-28 and 3.01 µM (inactive) in the test on ACHN.
